Reference: patent publication US20260166016A1, “GPR139 RECEPTOR AGONIST, PREPARATION METHOD THEREFOR, AND APPLICATION THEREOF” (NEUBO APPTECH CO., LTD., priority 2022, published 2026)

System: acutely restrained mice
Assay: Acute restraint mouse stress model, plasma corticosterone (ELISA)
Type: in vivo
Conditions: male C57BL/6J mice, gavage 1, 5, 25 mg/kg, 30 minutes after administration and 3 hours of acute restraint, dose-dependent, FIG. 1
Protocol: Mouse: Male C57BL/6J; 8 weeks old; Weight: 20-25 g; Quantity: 40 pieces
Group 1, acute restraint+placebo group, 10 mice; the mice were divided into 2 cages, 5 mice per cage. On the morning of the day of the experiment, the mice in this group were subjected to acute restraint, during which they were fasted and deprived of water.
Group 2, acute restraint+low-dose of compound NRB181 group (1 mg/kg), 10 mice; the mice were divided into 2 cages, 5 mice per cage. On the morning of the day of the experiment, the mice in this group were subjected to acute restraint, during which they were fasted and deprived of water.
Group 3, acute restraint+moderate-dose of compound NRB181 group (5 mg/kg), 10 mice; the mice were divided into 2 cages, 5 mice per cage. On the morning of the day of the experiment, the mice in this group were subjected to acute restraint, during which they were fasted and deprived of water.
Group 4, acute restraint+high-dose of compound NRB181 group (25 mg/kg), 10 mice; the mice were divided into 2 cages, 5 mice per cage. On the morning of the day of the experiment, the mice in this group were subjected to acute restraint, during which they were fasted and deprived of water.
18.3.1 On the day before the experiment, a placebo was prepared: 1 mL of 100% DMSO and 9 mL of formula x solution was added. […]

C[C@H](NC(=O)CNC(=O)c1cc(Cl)ccn1)c1c(F)cccc1F [NRB181]
expression level of corticosterone: significantly reduced
